Tested on: not given
Test: not given
Conditions: not given

| melting point [°C] | Structure (SMILES) |
| --- | --- |
| 173 to 174 | Cc1ccc2oc(=O)cc(CN(C)c3ccc(Cl)cc3)c2c1 [10h] |
| 99 to 100 | Cc1ccc2oc(=O)cc(CN3CCOCC3)c2c1 [10k] |
| 121 to 122 | Cc1ccc2oc(=O)cc(CN3CCSCC3)c2c1 [10l] |
| 170 to 172 | Cc1ccc2oc(=O)cc(CN3CCS(=O)(=O)CC3)c2c1 [10m] |
| 106 to 107 | Cc1ccc2oc(=O)cc(CN3CCC(c4ccccc4)CC3)c2c1 [10n] |
| 91 to 93 | CCc1ccc2oc(=O)cc(CNc3ccccc3)c2c1 [11a] |
| 171 to 172 | CCc1ccc2oc(=O)cc(CNc3ccc(C)cc3)c2c1 [11b] |
| 171 to 173 | CCc1ccc2oc(=O)cc(CNc3ccc(Cl)cc3)c2c1 [11c] |
| 184 to 186 | CCc1ccc2oc(=O)cc(CNc3ccc(Br)cc3)c2c1 [11d] |
| 151 to 152 | CCc1ccc2oc(=O)cc(CNc3ccc(OC)cc3)c2c1 [11e] |
| 176 to 178 | CCc1ccc2oc(=O)cc(CNc3cc(C)cc(C)c3)c2c1 [11f] |
| 96 to 98 | CCc1ccc2oc(=O)cc(CN3CCCCC3)c2c1 [11i] |
| > 300 | CCc1ccc2oc(=O)cc(CN3CCNCC3)c2c1 [11j] |
| 110 to 113 | CCc1ccc2oc(=O)cc(CN3CCOCC3)c2c1 [11k] |
| 134 to 135 | CCc1ccc2oc(=O)cc(CN3CCSCC3)c2c1 [11l] |
| 175 to 177 | CCc1ccc2oc(=O)cc(CN3CCS(=O)(=O)CC3)c2c1 [11m] |
| 118 to 120 | CCc1ccc2oc(=O)cc(CN3CCC(c4ccccc4)CC3)c2c1 [11n] |

| Structure (SMILES) | melting point [°C] |
| --- | --- |
| Cc1ccc2oc(=O)cc(CN3CCNCC3)c2c1 [10j] | > 300 |

Tested on: Trypanosoma cruzi epimastigotes (Tulahuen 2 strain)
Test: Anti-Trypanosoma cruzi activity: growth inhibition of epimastigotes (absorbance at 600 nm, day 5)
Assay type: cell-based
Conditions: T. cruzi epimastigotes
Procedure: Trypanosoma cruzi epimastigotes (Tulahuen 2 strain) were grown at 28 °C in an axenic milieu (BHI-Tryptose) supplemented with 5% fetal bovine serum (FBS), as previously described. Cells from a 10-day-old culture (stationary phase) were inoculated into 50 mL of fresh culture milieu to give an initial concentration of 1 × 10^6 cells per mL. Cell growth was followed by measuring the absorbance of the culture at 600 nm every day. Before inoculation, the milieu was supplemented with a given amount of the coumarin from a freshly prepared stock solution in DMSO (25 mM). The final concentration of DMSO in the culture medium never exceeded 0.4%, and the control was run in the presence of 0.4% DMSO and in the absence of drugs. […] Nifurtimox (Nfx) was used as the reference trypanocidal drug. The percentage of growth inhibition (PGI) was calculated as follows: PGI (%) = {1 - [(Ap - A0p) / (Ac - A0c)]} × 100, where Ap = […] of the culture containing the studied compound at day 5; […] = […] of the culture containing the studied compound just after addition of the inocula (day 0); Ac = […] of the culture in the absence of the studied compound (control) at day 5; […] = […] in the absence of the studied compound at day 0. […] At day 5, the absorbance of the culture was measured and related to the control.

| IC50 | Structure (SMILES) |
| --- | --- |
| Inactive | Cc1ccc2oc(=O)cc(CN3CCOCC3)c2c1 [10k] |
| Inactive | Cc1ccc2oc(=O)cc(CN3CCSCC3)c2c1 [10l] |
| Inactive | Cc1ccc2oc(=O)cc(CN3CCS(=O)(=O)CC3)c2c1 [10m] |
| Inactive | CCc1ccc2oc(=O)cc(CN3CCNCC3)c2c1 [11j] |

| Structure (SMILES) | IC50 |
| --- | --- |
| Cc1ccc2oc(=O)cc(CN3CCNCC3)c2c1 [10j] | Inactive |

Same assay, conditions: T. cruzi epimastigotes, test concentration not given

| Structure (SMILES) | GI (%) / percentage of growth inhibition (PGI) |
| --- | --- |
| Cc1ccc2oc(=O)cc(CN(C)c3ccc(Cl)cc3)c2c1 [10h] | < 59.2% |
| Cc1ccc2oc(=O)cc(CN3CCCCC3)c2c1 [10i] | < 15.9% |
| Cc1ccc2oc(=O)cc(CN3CCNCC3)c2c1 [10j] | Inactive |
| Cc1ccc2oc(=O)cc(CN3CCOCC3)c2c1 [10k] | Inactive |
| Cc1ccc2oc(=O)cc(CN3CCSCC3)c2c1 [10l] | Inactive |
| Cc1ccc2oc(=O)cc(CN3CCS(=O)(=O)CC3)c2c1 [10m] | Inactive |
| Cc1ccc2oc(=O)cc(CN3CCC(c4ccccc4)CC3)c2c1 [10n] | < 62.7% |
| CCc1ccc2oc(=O)cc(CNc3ccccc3)c2c1 [11a] | 35.7 ± 0.7% |
| CCc1ccc2oc(=O)cc(CNc3ccc(C)cc3)c2c1 [11b] | < 39.5% |
| CCc1ccc2oc(=O)cc(CNc3ccc(Cl)cc3)c2c1 [11c] | 67.6 ± 2.7% |
| CCc1ccc2oc(=O)cc(CNc3ccc(Br)cc3)c2c1 [11d] | < 21.9% |
| CCc1ccc2oc(=O)cc(CNc3ccc(OC)cc3)c2c1 [11e] | < 52.5% |
| CCc1ccc2oc(=O)cc(CNc3cc(C)cc(C)c3)c2c1 [11f] | < 44.3% |
| CCc1ccc2oc(=O)cc(CN3CCCCC3)c2c1 [11i] | < 71.4% |
| CCc1ccc2oc(=O)cc(CN3CCNCC3)c2c1 [11j] | Inactive |
| CCc1ccc2oc(=O)cc(CN3CCOCC3)c2c1 [11k] | 57.6 ± 3.4% |
| CCc1ccc2oc(=O)cc(CN3CCSCC3)c2c1 [11l] | 72.9 ± 0.4% |
| CCc1ccc2oc(=O)cc(CN3CCS(=O)(=O)CC3)c2c1 [11m] | < 10.2% |
| CCc1ccc2oc(=O)cc(CN3CCC(c4ccccc4)CC3)c2c1 [11n] | 26.7 ± 4.0% |

Same assay, conditions: Trypanosoma cruzi, TULAHUEN, 120 h, T. cruzi epimastigotes, read-out: IC50

| IC50 [µM] | Structure (SMILES) |
| --- | --- |
| > 25 | Cc1ccc2oc(=O)cc(CN(C)c3ccc(Cl)cc3)c2c1 [10h] |
| > 100 | Cc1ccc2oc(=O)cc(CN3CCCCC3)c2c1 [10i] |
| 13.2 ± 2.6 | Cc1ccc2oc(=O)cc(CN3CCC(c4ccccc4)CC3)c2c1 [10n] |
| 27.7 ± 1.3 | CCc1ccc2oc(=O)cc(CNc3ccccc3)c2c1 [11a] |
| > 25 | CCc1ccc2oc(=O)cc(CNc3ccc(C)cc3)c2c1 [11b] |
| 11.2 ± 1.7 | CCc1ccc2oc(=O)cc(CNc3ccc(Cl)cc3)c2c1 [11c] |
| 35.4 ± 2.1 | CCc1ccc2oc(=O)cc(CNc3ccc(Br)cc3)c2c1 [11d] |
| > 25 | CCc1ccc2oc(=O)cc(CNc3ccc(OC)cc3)c2c1 [11e] |
| > 25 | CCc1ccc2oc(=O)cc(CNc3cc(C)cc(C)c3)c2c1 [11f] |
| 13.9 ± 2.8 | CCc1ccc2oc(=O)cc(CN3CCCCC3)c2c1 [11i] |
| 22.7 ± 3.1 | CCc1ccc2oc(=O)cc(CN3CCOCC3)c2c1 [11k] |
| > 10 | CCc1ccc2oc(=O)cc(CN3CCSCC3)c2c1 [11l] |
| > 100 | CCc1ccc2oc(=O)cc(CN3CCS(=O)(=O)CC3)c2c1 [11m] |
| 30.3 ± 0.9 | CCc1ccc2oc(=O)cc(CN3CCC(c4ccccc4)CC3)c2c1 [11n] |
| 5 ± 1 | CC1CS(=O)(=O)CCN1/N=C/c1ccc([N+](=O)[O-])o1 (stereo not drawn) [Nifurtimox, reference compound] |

From publication PMC6921407, “Novel coumarins active against Trypanosoma cruzi and toxicity assessment using the animal model Caenorhabditis elegans” (BMC Pharmacology & Toxicology, 2019)
